# Test results: US8741806B2, “Herbicides” (Syngenta Limited, priority 2009, dated 2014)
# Columns and labels:
# Assay type in all cases: in vivo
# [1] = system: Avena fatua (AVEFA); assay: Example B post-emergence herbicidal activity, glasshouse pot test; conditions: 312 h, rate 250 g/ha, evaluated after 13 days, scale 0-100, read-out: Post-emergence activity AVEFA (100=total damage to plant; 0=no damage to plant)
# Procedure: (§1) Seeds of a variety of test species were sown in standard soil in pots. After cultivation for one day (pre-emergence) or after 8 days cultivation (post-emergence) under controlled conditions in a glasshouse (at 24/16° C., day/night; 14 hours light; 65% humidity), the plants were sprayed with an aqueous spray solution derived from the formulation of the technical active ingredient of formula I in acetone/water (50:50) solution containing 0.5% Tween 20 (polyoxyethelyene sorbitan monolaurate, CAS RN 9005-64-5). The test plants were then grown in a glasshouse under controlled conditions in a glasshouse (at 24/16° C., day/night; 14 hours light; 65% humidity) and watered twice daily. After 13 days for pre and post-emergence, the test was evaluated (100=total damage to plant; 0=no damage to plant). Setaria faberi (SETFA), Lolium perenne (LOLPE), Alopecurus myosuroides (ALOMY), Echinochloa crus-galli (ECHCG), and Avena fatua (AVEFA). Post-Emergence Activity
# [2] = system: Alopecurus myosuroides (ALOMY); assay: as above; conditions: 312 h, rate 250 g/ha, evaluated after 13 days, scale 0-100, read-out: Post-emergence activity ALOMY (100=total damage to plant; 0=no damage to plant)
# Procedure: as §1
# [3] = system: Echinochloa crus-galli (ECHCG); assay: as above; conditions: 312 h, rate 250 g/ha, evaluated after 13 days, scale 0-100, read-out: Post-emergence activity ECHCG (100=total damage to plant; 0=no damage to plant)
# Procedure: as §1
# [4] = system: Lolium perenne (LOLPE); assay: as above; conditions: 312 h, rate 250 g/ha, evaluated after 13 days, scale 0-100, read-out: Post-emergence activity LOLPE (100=total damage to plant; 0=no damage to plant)
# Procedure: as §1
# [5] = system: Avena fatua (AVEFA); assay: Example B pre-emergence herbicidal activity, glasshouse pot test; conditions: 312 h, rate 250 g/ha, evaluated after 13 days, scale 0-100, read-out: Pre-emergence activity AVEFA (100=total damage to plant; 0=no damage to plant)
# Procedure: as §1, with “Pre-Emergence” for “Post-Emergence”
# [6] = system: Alopecurus myosuroides (ALOMY); assay: as above; conditions: 312 h, rate 250 g/ha, evaluated after 13 days, scale 0-100, read-out: Pre-emergence activity ALOMY (100=total damage to plant; 0=no damage to plant)
# Procedure: as §1, with “Pre-Emergence” for “Post-Emergence”
# [7] = system: Echinochloa crus-galli (ECHCG); assay: as above; conditions: 312 h, rate 250 g/ha, evaluated after 13 days, scale 0-100, read-out: Pre-emergence activity ECHCG (100=total damage to plant; 0=no damage to plant)
# Procedure: as §1, with “Pre-Emergence” for “Post-Emergence”
# [8] = system: Lolium perenne (LOLPE); assay: as above; conditions: 312 h, rate 250 g/ha, evaluated after 13 days, scale 0-100, read-out: Pre-emergence activity LOLPE (100=total damage to plant; 0=no damage to plant)
# Procedure: as §1, with “Pre-Emergence” for “Post-Emergence”
smiles,measurement,setting,value
CCc1ccc(-c2ccc(Cl)c(Cl)c2)cc1C1=C(O)CC(C)(C)CC1=O [Compound T22],pest or weed control at 250 g/ha,[1],40%
same,pest or weed control at 250 g/ha,[2],70%
same,pest or weed control at 250 g/ha,[3],100%
same,pest or weed control at 250 g/ha,[4],100%
same,pest or weed control at 250 g/ha,[5],40%
same,pest or weed control at 250 g/ha,[6],20%
same,pest or weed control at 250 g/ha,[7],90%
same,pest or weed control at 250 g/ha,[8],80%
CCc1ccc(-c2ccc(Cl)c(F)c2F)cc1C1=C(O)C(C)(C)CC(C)(C)C1=O [Compound T62],pest or weed control at 250 g/ha,[1],80%
same,pest or weed control at 250 g/ha,[2],60%
same,pest or weed control at 250 g/ha,[3],80%
same,pest or weed control at 250 g/ha,[4],80%
same,pest or weed control at 250 g/ha,[5],50%
same,pest or weed control at 250 g/ha,[6],60%
same,pest or weed control at 250 g/ha,[7],90%
same,pest or weed control at 250 g/ha,[8],90%
CCc1ccc(-c2ccc(Cl)cc2Cl)cc1C1=C(O)C(C)(C)CC(C)(C)C1=O [Compound T61],pest or weed control at 250 g/ha,[1],30%
same,pest or weed control at 250 g/ha,[2],10%
same,pest or weed control at 250 g/ha,[3],90%
same,pest or weed control at 250 g/ha,[4],40%
same,pest or weed control at 250 g/ha,[5],50%
same,pest or weed control at 250 g/ha,[6],20%
same,pest or weed control at 250 g/ha,[7],90%
same,pest or weed control at 250 g/ha,[8],70%
CCc1ccc(-c2ccc(Cl)cc2C)cc1C1=C(O)CCCC1=O [Compound T48],pest or weed control at 250 g/ha,[1],10%
same,pest or weed control at 250 g/ha,[2],20%
same,pest or weed control at 250 g/ha,[3],100%
same,pest or weed control at 250 g/ha,[4],50%
same,pest or weed control at 250 g/ha,[5],20%
same,pest or weed control at 250 g/ha,[6],0%
same,pest or weed control at 250 g/ha,[7],90%
same,pest or weed control at 250 g/ha,[8],80%
CCc1ccc(-c2ccc(Cl)nc2Cl)cc1C1=C(O)C(C)(C)CCC1=O [Compound T12],pest or weed control at 250 g/ha,[1],0%
same,pest or weed control at 250 g/ha,[2],0%
same,pest or weed control at 250 g/ha,[3],90%
same,pest or weed control at 250 g/ha,[4],0%
same,pest or weed control at 250 g/ha,[5],0%
same,pest or weed control at 250 g/ha,[6],0%
same,pest or weed control at 250 g/ha,[7],0%
same,pest or weed control at 250 g/ha,[8],0%
CCc1ccc(-c2ccc(Cl)c(C(F)(F)F)c2)cc1C1=C(O)CCCC1=O [Compound T41],pest or weed control at 250 g/ha,[1],50%
same,pest or weed control at 250 g/ha,[2],60%
same,pest or weed control at 250 g/ha,[3],90%
same,pest or weed control at 250 g/ha,[4],100%
same,pest or weed control at 250 g/ha,[5],30%
same,pest or weed control at 250 g/ha,[6],20%
same,pest or weed control at 250 g/ha,[7],100%
same,pest or weed control at 250 g/ha,[8],100%
CCc1ccc(-c2ccc(Cl)c(F)c2)cc1C1=C(O)CC(C)(C)CC1=O [Compound T33],pest or weed control at 250 g/ha,[1],80%
same,pest or weed control at 250 g/ha,[2],100%
same,pest or weed control at 250 g/ha,[3],100%
same,pest or weed control at 250 g/ha,[4],100%
same,pest or weed control at 250 g/ha,[5],20%
same,pest or weed control at 250 g/ha,[6],0%
same,pest or weed control at 250 g/ha,[7],90%
same,pest or weed control at 250 g/ha,[8],90%
CCc1ccc(-c2ccc(Cl)c(F)c2F)cc1C1=C(O)CC(C)(C)CC1=O [Compound T30],pest or weed control at 250 g/ha,[1],60%
same,pest or weed control at 250 g/ha,[2],80%
same,pest or weed control at 250 g/ha,[3],100%
same,pest or weed control at 250 g/ha,[4],100%
same,pest or weed control at 250 g/ha,[5],20%
same,pest or weed control at 250 g/ha,[6],0%
same,pest or weed control at 250 g/ha,[7],70%
same,pest or weed control at 250 g/ha,[8],70%
CCc1ccc(-c2ccc(Cl)c(F)c2F)cc1C1=C(O)C(C)(C)CCC1=O [Compound T16],pest or weed control at 250 g/ha,[1],90%
same,pest or weed control at 250 g/ha,[2],50%
same,pest or weed control at 250 g/ha,[3],100%
same,pest or weed control at 250 g/ha,[4],90%
same,pest or weed control at 250 g/ha,[5],20%
same,pest or weed control at 250 g/ha,[6],30%
same,pest or weed control at 250 g/ha,[7],90%
same,pest or weed control at 250 g/ha,[8],80%
CCc1ccc(-c2ccc(Cl)cc2C)cc1C1=C(O)CC(C)(C)CC1=O [Compound T21],pest or weed control at 250 g/ha,[1],0%
same,pest or weed control at 250 g/ha,[2],0%
same,pest or weed control at 250 g/ha,[3],80%
same,pest or weed control at 250 g/ha,[4],70%
same,pest or weed control at 250 g/ha,[5],30%
same,pest or weed control at 250 g/ha,[6],0%
same,pest or weed control at 250 g/ha,[7],40%
same,pest or weed control at 250 g/ha,[8],50%
